{
  "source": "patent US4080466A",
  "about": "“Pharmaceutical compositions containing 4-hydroxyl-1,3-dithiolan-2-ylidene malonates” (Nihon Nohyaku Co., Ltd., priority 1976, dated 1978)",
  "key": {"[1]": {"test_system": "acute liver damage induced by carbon tetrachloride", "assay": "Protective Effect on Acute Liver Damage associated with Centrilobular Necrosis (carbon tetrachloride)", "format": "in vivo, mice (dd-strain)", "settings": "250 mg/kg oral, average of 5 to 6 mice; for Liver damage index: 6 h before CCl4 (0.05 ml/kg oral), score 0 Normal, 2 slight, 4 clear, 6 heavy damage; for p-GPT (plasma glutamic-pyruvic transaminase activity): 6 h before CCl4, 24 h after CCl4, values over 1,000 regarded as 1,000", "excerpt": "Carbon tetrachloride (CCl4) administration induces centrilobular necrosis of the liver associated with loss of diphosphopyridine nucleotide, hepatic glycogen, coenzyme A and increase in neutral fat. Release of several enzymes from the hepatocytes, and increase of enzyme activities in the plasma are recognized as the result of the damage of the liver. A suitable means for evaluating the degree of damage induced by CCl4 or the degree of protection afforded by drugs is to study the plasma glutamic-pyruvic transminase (p-GPT) activity.\nMethods: The test compounds were dissolved or suspended in olive oil and administered orally at the dose of 250 mg/kg to the mice (Four-week-old male mice-dd strain). After 6 hours, CCl4 was administered orally (0.05 ml/kg as olive oil solution). Animals were killed 24 hours after CCl4 administration, and the liver was grossly observed. The plasma was obtained by centrifugation. Activities of p-GPT were determined by the method of Reitman and Frankel and expressed in Karmen units.\nScore for liver damage index was as follows:\n4 Clearly observable damage\nEach figure indicates average of 5 to 6 mice. Values of p-GPT over 1,000 Karmen unit regarded as 1,000 for calculation of average for convenience."}, "[2]": {"test_system": "chronic liver damage induced by thioacetamide", "assay": "Therapeutic Effect on Chronic Liver Damage (thioacetamide), BSP test", "format": "in vivo, rats (Spraque Dawley strain)", "settings": "normal diet + 0.2% of compound after 12 times TAA 100 mg/kg", "protocol": "In the tests of this Example, TAA was repeatedly administered to animals to prepare test animals suffering from somewhat chronic liver damages, and then the present compounds were administered thereto to know whether or not the compounds were effective against chronic hepatitis.\nThe degree of the liver damage and the therapeutic effects of the compounds were evaluated according to BSP test. The BSP test is a method in which BSP (sulfobromophthalein sodium), a dye known to be quickly metabolized in and excreted from the liver, is intravenously injected into animals and, after a definite period of time, the blood is taken out to measure the amount of BSP remaining in the plasma. In case the animals are suffering from the lever damage, the dye will remain, according to the degree of the damage, at the stage where a major portion of BSP metabolized and excreted in the case of normal animals.\nFive groups of rats (Spraque Dawley strain) were treated as follows:\nGroup A: The rats were orally administered with 100 mg/kg of thioacetamide,at 3 days intervals for 36 days (12 times of the administration), then were submitted for 10 days to a normal diet.\nGroup B: The rats were orally administered with 100 mg/kg of thioacetamide at 3 days intervals for 36 days (12 times of the administration), then were submitted for 10 days to the normal diet + 0.2% of compound 4.\nGroup C: The rats were orally administered with 100 mg/kg of thioacetamide at 3 days intervals for 36 days (12 times of the administration), then were submitted for 10 days to the normal diet + 0.2% of compound 2.\nGroup D: The rats were orally administered with 100 mg/kg of thioacetamide at 3 days intervals for 36 days (12 times of the administration), then were submitted for 10 days to the normal diet + 0.2% of anethol trithion.\nGroup E: The rats were submitted to the normal diet as the control.\nFive rats were sacrificed from each group at appropriate intervals for BSP (sulfobromophthalein) test, the results of which were shown as amounts (mg) of BSP remaining in 1 dl of plasma."}, "[3]": {"test_system": "fatty liver induced by ethionine", "assay": "Effect on Fatty Liver (ethionine)", "format": "in vivo, mouse (dd-strain)", "settings": "250 mg/kg oral, 24 h, 10 animals", "excerpt": "But, the fatty liver is grouped into a couple of patterns from the mechanism of lipid accumulation or metabolism of lipoprotein in the liver. Ethionine is a typical example which induces first pattern of fatty liver. It inhibits RNA and protein synthesis and destructs polysome of the liver cell. Fatty liver is induced by inhibition of the protein synthesis and disturbance of lipoprotein secretion.\nUsually, fatty liver is closely related to the accumulation of triglyceride in the liver. In the present example, the degree of fatty liver and protective or therapeutic effect against the fatty liver was evaluated by measurement of triglyceride content in the liver. Methods:\nThe compounds of this invention and methionine were independently dissolved or suspended into olive oil and administered orally to 4 week-old male mouse (dd-strain) at the dose of 250 mg/kg. One hour before it, simultaneously to it, or one hour after it, ethionine dissolved in equimolar NaOH solution was administered intraperitoneally at the dose of 200 mg/kg. Twenty four hours after the administration of ethionine, the animals were sacrificed and triglyceride content in the liver was determined by chromotropic acid method."}, "[4]": {"test_system": "bile flow", "assay": "Cholagogic Action: effect on bile flow", "format": "in vivo, rats (SD-JCL strain)", "settings": "200 mg/kg oral; for Bile flow: before treatment = 100; for Quantity of total excreted bile relative to control: 5 hours after administration", "protocol": "(§1) Drugs as choleresis are used for patients to improve bile flow. In the present example, the effect of the compound of the invention on the quantities of bile and biliary salt is investigated. Methods:\n(§2) The male rats (4 week-aged, SD-JCL strain) were anesthetized with sodium pentobarbital (37.5 mg/kg, intraperitoneal injection). The abdominal cavity was opened through a midline incision. The common bile duct was catheterized with polyethylene tube o.d. 0.8 mm. The catheter was brought to the outside through the abdominal incision would prior to closing. Bile was collected from the catheter continuously with time intervals of one hour. The quantity of bile produced in one hour was determined by weighing and that of biliary salt was determined by enzymatic method (Ikagaku Jikkenho Koza 1B, Biological Constituents II, edited by Tamio YAMAKAWA). The amount of biliary salt was represented in the term of cholic acid equivalent.\n(§3) In the representation of the results, the quantities of bile and biliary salt produced in one hour prior to the administration of drug were taken as 100. The compound of this invention was orally administered at the dose of 200 mg/kg. As reference, anethol trithion was used."}, "[5]": {"test_system": "excretion of biliary salt", "assay": "Cholagogic Action: effect on the excretion of biliary salt", "format": "in vivo, rats (SD-JCL strain)", "settings": "200 mg/kg oral; for Excretion of biliary salt: before treatment = 100; for Amount of total excreted biliary salts relative to control: 5 hours after administration", "protocol": "as §1, §2, §3"}, "[6]": {"test_system": "alcohol metabolic function of liver", "assay": "Effect on Concentration of Ethyl alcohol in the Blood", "format": "in vivo, mice", "settings": "250 mg/kg oral, 6 h before ethyl alcohol 1,000 mg/kg", "protocol": "After 6 hours, 1,000 mg/kg of ethyl alcohol was given orally. Blood was taken in a capillary from caudal vein at the time indicated in the results. The plasma was obtained by centrifugation. The concentration of ethyl alcohol in the plasma was measured by FID type gas liquid chromatography. Five mice were used for each group."}, "[7]": {"settings": "compound 1 hr before ethionine (200 mg/kg i.p.)"}, "[8]": {"settings": "simultaneous with ethionine (0 hr)"}},
  "data": [
    {"molecule": "CC(C)OC(=O)C(C(=O)OC(C)C)=C1SCC(O)S1", "note": "(centres unmarked) [Compound 2, Diisopropyl 4-hydroxy-1,3-dithiolan-2-ylidene malonate]", "values": [
      {"measurement": "Liver damage index", "setting": "[1]", "value": 0.1},
      {"measurement": "p-GPT (plasma glutamic-pyruvic transaminase activity)", "setting": "[1]", "value": 20, "unit": "Karmen units"},
      {"measurement": "BSP remaining in plasma", "setting": "[2]; 2 days", "value": "7.0 ± 2.8", "unit": "mg/dL"},
      {"measurement": "BSP remaining in plasma", "setting": "[2]; 5 days", "value": "3.1 ± 0.7", "unit": "mg/dL"},
      {"measurement": "BSP remaining in plasma", "setting": "[2]; 10 days", "value": "0.8 ± 0.2", "unit": "mg/dL"},
      {"measurement": "Triglyceride", "setting": "[3]; compound 1 hr after ethionine", "value": "11.8 ± 0.39", "unit": "mg/g-liver"},
      {"measurement": "Triglyceride", "setting": "[3]; [7]", "value": "10.3 ± 0.96", "unit": "mg/g-liver"},
      {"measurement": "Triglyceride", "setting": "[3]; [8]", "value": "6.9 ± 0.38", "unit": "mg/g-liver"},
      {"measurement": "Bile flow", "setting": "[4]; 1 hour after treatment", "value": "112 ± 2.4"},
      {"measurement": "Bile flow", "setting": "[4]; 2 hours after treatment", "value": "117 ± 6.8"},
      {"measurement": "Bile flow", "setting": "[4]; 3 hours after treatment", "value": "101 ± 7.0"},
      {"measurement": "Bile flow", "setting": "[4]; 4 hours after treatment", "value": "97 ± 8.3"},
      {"measurement": "Quantity of total excreted bile relative to control", "setting": "[4]", "value": 1.13, "unit": "times"},
      {"measurement": "Bile flow", "setting": "[4]; 5 hours after treatment", "value": "80 ± 7.3"},
      {"measurement": "Excretion of biliary salt", "setting": "[5]; 1 hour after treatment", "value": "102 ± 7.3"},
      {"measurement": "Excretion of biliary salt", "setting": "[5]; 2 hours after treatment", "value": "100 ± 5.8"},
      {"measurement": "Excretion of biliary salt", "setting": "[5]; 3 hours after treatment", "value": "106 ± 7.9"},
      {"measurement": "Excretion of biliary salt", "setting": "[5]; 4 hours after treatment", "value": "97 ± 7.2"},
      {"measurement": "Amount of total excreted biliary salts relative to control", "setting": "[5]", "value": 1.43, "unit": "times"},
      {"measurement": "Excretion of biliary salt", "setting": "[5]; 5 hours after treatment", "value": "90 ± 5.3"},
      {"measurement": "Concentration of Ethyl alcohol in Plasma", "setting": "[6]; 0 min", "value": "10±7", "unit": "ppm"},
      {"measurement": "Concentration of Ethyl alcohol in Plasma", "setting": "[6]; 5 min", "value": "711±95", "unit": "ppm"},
      {"measurement": "Concentration of Ethyl alcohol in Plasma", "setting": "[6]; 15 min", "value": "558±104", "unit": "ppm"},
      {"measurement": "Concentration of Ethyl alcohol in Plasma", "setting": "[6]; 30 min", "value": "426±96", "unit": "ppm"},
      {"measurement": "Concentration of Ethyl alcohol in Plasma", "setting": "[6]; 60 min", "value": "13±6", "unit": "ppm"}
    ]},
    {"molecule": "CCOC(=O)C(C(=O)OC(C)C)=C1SCC(O)S1", "note": "(centres unmarked) [Compound 4, Ethyl isopropyl 4-hydroxy-1,3-dithiolan-2-ylidene malonate]", "values": [
      {"measurement": "Liver damage index", "setting": "[1]", "value": 0.1},
      {"measurement": "p-GPT (plasma glutamic-pyruvic transaminase activity)", "setting": "[1]", "value": 40, "unit": "Karmen units"},
      {"measurement": "BSP remaining in plasma", "setting": "[2]; 2 days", "value": "7.2 ± 1.2", "unit": "mg/dL"},
      {"measurement": "BSP remaining in plasma", "setting": "[2]; 5 days", "value": "3.6 ± 0.5", "unit": "mg/dL"},
      {"measurement": "BSP remaining in plasma", "setting": "[2]; 10 days", "value": "0.3 ± 0.1", "unit": "mg/dL"},
      {"measurement": "Triglyceride", "setting": "[3]; compound 1 hr after ethionine", "value": "12.8 ± 0.92", "unit": "mg/g-liver"},
      {"measurement": "Triglyceride", "setting": "[3]; [7]", "value": "12.0 ± 0.77", "unit": "mg/g-liver"},
      {"measurement": "Triglyceride", "setting": "[3]; [8]", "value": "6.7 ± 0.43", "unit": "mg/g-liver"},
      {"measurement": "Bile flow", "setting": "[4]; 1 hour after treatment", "value": "108 ± 2.1"},
      {"measurement": "Bile flow", "setting": "[4]; 2 hours after treatment", "value": "120 ± 7.7"},
      {"measurement": "Bile flow", "setting": "[4]; 3 hours after treatment", "value": "107 ± 6.8"},
      {"measurement": "Bile flow", "setting": "[4]; 4 hours after treatment", "value": "98 ± 7.2"},
      {"measurement": "Quantity of total excreted bile relative to control", "setting": "[4]", "value": 1.11, "unit": "times"},
      {"measurement": "Bile flow", "setting": "[4]; 5 hours after treatment", "value": "88 ± 5.3"},
      {"measurement": "Excretion of biliary salt", "setting": "[5]; 1 hour after treatment", "value": "100 ± 7.2"},
      {"measurement": "Excretion of biliary salt", "setting": "[5]; 2 hours after treatment", "value": "106 ± 7.8"},
      {"measurement": "Excretion of biliary salt", "setting": "[5]; 3 hours after treatment", "value": "98 ± 4.3"},
      {"measurement": "Excretion of biliary salt", "setting": "[5]; 4 hours after treatment", "value": "90 ± 7.7"},
      {"measurement": "Amount of total excreted biliary salts relative to control", "setting": "[5]", "value": 1.37, "unit": "times"},
      {"measurement": "Excretion of biliary salt", "setting": "[5]; 5 hours after treatment", "value": "82 ± 6.8"},
      {"measurement": "Concentration of Ethyl alcohol in Plasma", "setting": "[6]; 0 min", "value": "9±4", "unit": "ppm"},
      {"measurement": "Concentration of Ethyl alcohol in Plasma", "setting": "[6]; 5 min", "value": "730±92", "unit": "ppm"},
      {"measurement": "Concentration of Ethyl alcohol in Plasma", "setting": "[6]; 15 min", "value": "536±113", "unit": "ppm"},
      {"measurement": "Concentration of Ethyl alcohol in Plasma", "setting": "[6]; 30 min", "value": "373±105", "unit": "ppm"},
      {"measurement": "Concentration of Ethyl alcohol in Plasma", "setting": "[6]; 60 min", "value": "7±2", "unit": "ppm"}
    ]}
  ]
}
